The data set can be described thus: Human HepG2 cell viability assay in 384 well format. The format is toxicity, cell-based. The arrangement: dose 125 nL, time 70.5 hour; cytotoxicity at 70.5 h: concentration not given beside the values. The note with it: HepG2 cells, read-out: Inhibition.

Regarding `CC(C)(O)CCc1cccc(C(=O)N2CCC[C@H]2CN2CCCC2)c1`, the cytotoxicity at 70.5 h worked out at 32.8%.

For `COc1cc(OC)c(-c2nc3c([nH]2)c(C2CC2)nn3C)cc1OC`, the cytotoxicity at 70.5 h was -3.1%. As for `Cc1nc(CN2CCCn3nc(CNC(=O)C4CCC4)cc3C2)co1`, the cytotoxicity at 70.5 h amounted to 0.506%.

For `Clc1cccc2c3c([nH]c12)CCN(Cc1cc2n(n1)CCNC2)C3`, the cytotoxicity at 70.5 h stood at 22.8%.

Consider `Cn1ncc2c(NC3CN4CCC3CC4)nc(-c3ccncc3)nc21` (stereo not given), for which the cytotoxicity at 70.5 h amounted to 12%. For the compound `CCCN(Cc1cccnc1)C(=O)C1CCNC1` (stereo not given), the cytotoxicity at 70.5 h is -1.17%. Take `CCN1CC(C(=O)NCc2noc(Cc3ccccc3)n2)CCC1=O` (stereo not given): the cytotoxicity at 70.5 h is -12.4%. For `CCN(CCCN1CCOCC1)C(=O)c1cnn(CC)c1` the value was 2.38%. On to `Nc1ncc(C(=O)N2CCC(O)(CO)CC2)c(-c2ccccc2)n1`, for which the cytotoxicity at 70.5 h was -15.6%. To `CN(Cc1cc2n(n1)CCN(C(=O)c1cccnc1)C2)Cc1nccs1` belongs -12%; to `CSCCC(=O)N1C[C@H](Nc2ccnc(C)n2)[C@@H](C(C)C)C1`, -23.4%; to `c1ccc(SCCN2CCCC(Cn3ccnc3)C2)cc1` (stereo not given), -5.94%. Take `CCCc1nnc(N2CCC(N3CCCC3)CC2)o1`: the cytotoxicity at 70.5 h turned out to be 26%.

For the compound `O=S(=O)(NCc1ccccc1)Nc1cccc(Cn2cncn2)c1`, the cytotoxicity at 70.5 h was -7.79%. Turning to `COc1ccccc1OCc1cc(C(=O)N2CCS(=O)(=O)CC2)n[nH]1`, the cytotoxicity at 70.5 h is -6.21%. For `CCOc1ccnc(N2CCN(Cc3ncccc3C)CC2)n1` the value was 3.5%. Take `O=C(c1cccnc1-c1ccc2c(c1)OCCO2)N1CCCC1`: the cytotoxicity at 70.5 h was -8.05%. In the case of `C[C@@H]1CN(CCOc2ccc(F)cc2)CC[C@@]1(O)C1CCOCC1`, the cytotoxicity at 70.5 h is -2.42%.

As for `O=C(CCN1CCCC(CC2CC2)(C(=O)O)C1)NC1CCCC1` (stereo not given), the cytotoxicity at 70.5 h is -9.72%. For `OC1(CN2CCC(Oc3cccc(C(F)(F)F)c3)CC2)CNCCOC1` (stereo not given), the cytotoxicity at 70.5 h is -15.4%. Turning to `Cc1cc(CN2CCCC2)cc(Oc2ccc(C(F)(F)F)cn2)c1`, the cytotoxicity at 70.5 h is -0.531%. With `NC(=O)CCC(=O)N1CCc2[nH]nc(-c3ccc4c(c3)OCO4)c2C1`, the cytotoxicity at 70.5 h was -5.52%. Regarding `O=C(Nc1ccccc1OCCc1ccccn1)N1CCOCC1`, the cytotoxicity at 70.5 h is -13.5%. Take `COc1ccc(F)cc1C(=O)N1CC(c2ccncc2)C1`: the cytotoxicity at 70.5 h is -10%.

With `CCCc1nc(C)cc(N2CCC3(CCC(=O)N(CCCO)C3)CC2)n1`, the cytotoxicity at 70.5 h was -7.61%. On to `COc1ccc2c(c1)C(C(=O)NCCN1CCOC1=O)CC(=O)N2` (stereo not given), for which the cytotoxicity at 70.5 h is -4.48%. As for `COC(=O)[C@H]1C[C@@H](O)CCN1S(=O)(=O)c1c(C)cc(OC)c(C)c1C`, the cytotoxicity at 70.5 h was 27%.

Consider `CN1CC[C@H]2CN(C(=O)c3csc(Cc4ccccc4)n3)C[C@H]21`, for which the cytotoxicity at 70.5 h is -5.61%. `CCNC(=O)[C@@H]1C[C@@H](NC(=O)c2cc(C)on2)CN1Cc1ccccn1`: the cytotoxicity at 70.5 h is 24.8%. For `Cc1ccccc1SC1CCN(C(=O)CCCS(N)(=O)=O)CC1` the value was -5.95%; for `Cc1nc(C(=O)N[C@H]2COC[C@@H]2N2CCCCC2)cs1`, 17.8%; for `CCN1CCN(c2ncnc3c2CCN(C(=O)C2CC2)C3)CC1`, 26.2%. On to `CC(NC(=O)COc1ccc(Cl)cc1Cl)c1nncn1C(C)C` (stereo not given), for which the cytotoxicity at 70.5 h was -3.07%. To `N#Cc1c(N)nc2c(c1-c1c[nH]nc1C1CCCCC1)CC(N)CC2` (stereo not given) belongs 22.4%; to `Cc1ccncc1C(=O)N1CC[C@@]2(O)CCN(C3CCCCC3)C[C@H]2C1`, -3.63%. With `Cc1ccccc1C(C(=O)N(C)CCc1cnn(C)c1)N(C)C` (stereo not given), the cytotoxicity at 70.5 h is -0.295%.

Regarding `CCN1CCCC1CN(Cc1ccon1)CC1CCN(CCOC)CC1` (stereo not given), the cytotoxicity at 70.5 h was -9.79%.

In the case of `c1cc(CN2CCC(c3nnc4n3CCCCC4)CC2)c2nonc2c1`, the cytotoxicity at 70.5 h came out at 12.2%. To `Cc1cc(CNC(=O)C2CC(=O)N(CCN(C)C)C2)cc(C)n1` (stereo not given) belongs 27.5%; to `COc1c(F)ccc(C(=O)N2CC[C@H](CO)[C@@H](O)C2)c1F`, -3.48%; to `CC(C)OC(C)c1nnc(SCC(=O)O)n1-c1ccc(F)cc1F` (stereo not given), -6.19%. As to `O=C1CCC2(CCCN(C(=O)c3ccoc3)C2)CN1CCc1c[nH]cn1` (stereo not given), the cytotoxicity at 70.5 h was -4.81%. Turning to `CN(C)C[C@H]1C[C@H](CO)CN(C(=O)c2cc(S(N)(=O)=O)ccc2F)C1`, the cytotoxicity at 70.5 h was -3.55%. Take `Cc1nc2c(c(=O)n1C)CN(C(=O)C1CCN(C(=O)C3CCC3)CC1)C2`: the cytotoxicity at 70.5 h was -1.69%. As to `Cc1ncsc1CCC(=O)N1CCn2cccc2C1c1cccnc1` (stereo not given), the cytotoxicity at 70.5 h was -3.49%.

Consider `O=C(NCc1nnc2n1CCCC2)c1cn(-c2ccccc2)nn1`, for which the cytotoxicity at 70.5 h is -4.64%. `CCc1cc(N[C@@H]2C[C@H]3CC[C@@H]2C3)n2nccc2n1`: the cytotoxicity at 70.5 h is -6.76%. Consider `CCc1c(C)sc2ncnc(N3CC[C@@H](N4CCOCC4)[C@H](O)C3)c12`, for which the cytotoxicity at 70.5 h was -4.12%. Turning to `COCCC1CCCCN1Cc1nc(C2CC2)no1` (stereo not given), the cytotoxicity at 70.5 h is -9.77%. For `O=C(CCCOCc1ccccc1)N1CCCC(c2ncc[nH]2)C1` (stereo not given), the cytotoxicity at 70.5 h was -22.8%. To `CCCSCC(=O)N1CCN(c2ccc(C)cc2)CC1C` (stereo not given) belongs -14.9%. Regarding `COC[C@]1(O)CCN(Cc2cnc(N3CCOCC3)nc2)CC1(C)C`, the cytotoxicity at 70.5 h was -14.6%. With `Fc1ccccc1Cc1noc(CN2CCC(N3CCSCC3)CC2)n1`, the cytotoxicity at 70.5 h was -3.88%. In the case of `Fc1ccc(N2CCN(CCCc3cn[nH]c3)CC2)cc1`, the cytotoxicity at 70.5 h was found to be 12%. For `COc1ccnc(CN2CC(=O)N(c3ccc(C)cc3)CC2C)c1OC` (stereo not given) the value was 16.8%; for `Cc1ccc2cc(C3(O)CCN(C(=O)[C@@H]4CCCCN4)CC3)ccc2n1`, -2.74%. Take `CCc1[nH]c2ccc(CNC(=O)c3cnc(N)nc3C)cc2c1C`: the cytotoxicity at 70.5 h was -3.2%. With `CN(C)C(C(=O)N1CCCN(C(=O)C2CCC2)CC1)c1ccccc1F` (stereo not given), the cytotoxicity at 70.5 h was -9.38%. To `CCCOCC1CCN(C(=O)Cn2cccc(C(F)(F)F)c2=O)C1` (stereo not given) belongs 3.49%; to `CC(C)(C)CC(=O)N1CCC(n2cc(C3(O)CCCC3)nn2)CC1`, -7.65%. Regarding `CCOCc1nc(-c2cccc(OC)c2OC)n(C2CCN(C)CC2)n1`, the cytotoxicity at 70.5 h is -1.78%.

`CSc1ccccc1-n1ccnc1-c1cn(C2CCNCC2)nn1`: the cytotoxicity at 70.5 h was found to be 2.69%. For `COCCCC1CCCN(Cc2c(C)ccc3ncccc23)C1` (stereo not given) the value was 6.57%; for `CN1CCCC1CCn1ccnc1-c1ccc2ccccc2n1` (stereo not given), 1.35%. As to `Cc1nc(C2CCNCC2)cc(N(C)CCc2cn[nH]c2)n1`, the cytotoxicity at 70.5 h was -3.08%. On to `CC(C1CCN(Cc2c(Cl)ccc(O)c2Cl)CC1)N1CCN(C)CC1` (stereo not given), for which the cytotoxicity at 70.5 h is -4.03%. Turning to `CNc1nc(C(=O)N2CCCC(CO)(CCCOC)C2)cs1` (stereo not given), the cytotoxicity at 70.5 h is -4.71%. For the compound `Cc1nc2c(c(N3CCC(CN4CCCC4=O)CC3)n1)CCNCC2`, the cytotoxicity at 70.5 h was -5.86%.

Take `CN(Cc1ccccc1)c1ncccc1CNC1CCCC1`: the cytotoxicity at 70.5 h was -1.34%. Take `CCC1(O)CCCN(c2nc(-c3ccccn3)nc3c2c(C)nn3C)C1` (stereo not given): the cytotoxicity at 70.5 h is -2.92%.

These data come from ChEMBL document CHEMBL3507680, “University of Dundee, Gates Library screen for HepG2 cell viability”.
